Reference: US20250195521A1 (Revolution Medicines, Inc., priority 2020, published 2025)
Where “and” joins values, the source holds several entries; their conditions need not be identical. Equal entries are not always repeated. Where two headings read alike, the source gives them in different places.

Key:
[1] = test system: Capan-1 cells (K-Ras G12V); experiment: CellTiter-Glo cell viability, Capan-1; format: cell-based, human; details: K-Ras G12V, 5-day treatment, read-out: Capan-1 Cell Viability IC50
In short: (§1)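 Endpoint: CellTiter-Glo luminescence on day 5, following ~30 min at room temperature. Data as (sample/mean DMSO)×100, four-parameter logistic fit.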

KRAS G13C = KRAS G13C (Homo sapiens (Human), UniProt P01116+P62937, G13C); experiment: Ras-Raf disruption/FRET/MOA assay (BRAF RBD, Cyclophilin A); format: biochemical; details: read-out: KRAS G13C FRET IC50
In short: (§2)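 TR-FRET readout: anti-His Eu-W1024 (10 nM) and anti-GST allophycocyanin (50 nM) added after 3 h, 25° C compound incubation, then 1.5 h more. Decrease in FRET ratio versus DMSO wells marks Ras:RAF disruption; IC50 reported.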

KRAS G12D = KRAS G12D (Homo sapiens (Human), UniProt P01116+P62937, G12D); experiment: as above; format: biochemical; details: read-out: KRAS G12D FRET IC50
In short: as §2

NRAS G12C = NRAS G12C (Homo sapiens (Human), UniProt P01111+P62937, G12C); experiment: as above; format: biochemical; details: read-out: NRAS G12C FRET data IC50
In short: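 TR-FRET read after 1.5 h with 10 nM anti-His Eu-W1024 and 50 nM anti-GST APC, following 3 h at 25 °C of GMPPNP-loaded His6-Ras (12.5 nM), GST-BRAF RBD (50 nM) and Cyclophilin A (25 μM) with compound from 30 μM final, 10 points, 3-fold. IC50 reported; pH 7.3 HEPES, 100 mM NaCl.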

KRAS G12V = KRAS G12V (Homo sapiens (Human), UniProt P01116+P62937, G12V); experiment: as above; format: biochemical; details: read-out: KRAS G12V FRET IC50
In short: as §2

KRAS G13D = KRAS G13D (Homo sapiens (Human), UniProt P01116+P62937, G13D); experiment: as above; format: biochemical; details: read-out: KRAS G13D FRET data IC50
In short: as §2

KRAS G12S = KRAS G12S (Homo sapiens (Human), UniProt P01116+P62937, G12S); experiment: as above; format: biochemical; details: read-out: KRAS G12S FRET IC50
In short: as §2

KRAS G12C = KRAS G12C (Homo sapiens (Human), UniProt P01116+P62937, G12C); experiment: as above; format: biochemical; details: read-out: KRAS G12C FRET IC50
In short: as §2

KRAS WT = KRAS WT (Homo sapiens (Human), UniProt P01116+P62937); experiment: as above; format: biochemical; details: read-out: KRAS WT FRET data IC50
In short: as §2

NCI-H358 (K-Ras G12C) = experiment: CellTiter-Glo cell viability assay, NCI-H358; format: cell-based, human
In short: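 After direct compound addition, plates were incubated to day 5 and equilibrated at room temperature for about 30 minutes before CellTiter-Glo reading. Values derive from luminescence relative to the DMSO mean, fitted with a four-parameter logistic model.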

[2] = target: K-Ras G12C(GMP-PNP) binding to BRAF RBD (Homo sapiens (Human), UniProt P01116+P62937, G12C); experiment: Disruption of BRAF RBD interaction with K-Ras (FRET / MOA assay), K-Ras G12C; format: biochemical; details: read-out: KRAS G12C FRET IC50
Excerpt: Note—The following protocol describes a procedure for monitoring disruption of K-Ras G12C(GMP-PNP) binding to BRAF^RBD by a compound of the invention. This protocol may also be executed substituting other Ras proteins or nucleotides.
The purpose of this biochemical assay was to measure the ability of test compounds to facilitate ternary complex formation between a nucleotide-loaded K-Ras isoform and Cyclophilin A; the resulting ternary complex disrupts binding to a BRAF^RBD construct, inhibiting K-Ras signaling through a RAF effector. Data is reported as IC50 values.
Compound was present in plate wells as a 10-point 3-fold dilution series starting at a final concentration of 30 μM. After incubation at 25° C. for 3 hours, a mixture of Anti-His Eu—W1024 and anti-GST allophycocyanin was then added to assay sample wells at final concentrations of 10 nM and 50 nM, respectively, and the reaction incubated for an additional 1.5 hours. […] Compounds that facilitate disruption of a K-Ras: RAF complex were identified as those eliciting a decrease in the TR-FRET ratio relative to DMSO control wells.

[3] = test system: NCI-H358 cells (K-Ras G12C); experiment: CellTiter-Glo cell viability, NCI-H358; format: cell-based, human; details: K-Ras G12C, 5-day treatment, read-out: H358 Cell Viability IC50
In short: as §1

[4] = test system: K-Ras G12C (NCI-H358 cells); experiment: Potency assay: pERK in NCI-H358 cells; format: cell-based, human; details: NCI-H358 cells, 4 hours, read-out: pERK EC50 (H358 KRAS G12C)
In short: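 Cells plated the day before were exposed for 4 h at 37° C, 5% CO2 to a 10-point, 3-fold DMSO dilution series (10 mM top stock), in duplicate. Phospho-ERK was read by AlphaLISA SureFire Ultra or by In-Cell Western with DRAQ5 DNA stain, and IC50 came from a 4-parameter sigmoidal fit.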

[5] = Homo sapiens, NCI-H358, 120 h, 5-day treatment, read-out: H358 Cell Viability assay data (K-Ras G12C, IC50)

Sequence of KRAS WT (P01116 other isoform, or with tags, fused parts or gaps): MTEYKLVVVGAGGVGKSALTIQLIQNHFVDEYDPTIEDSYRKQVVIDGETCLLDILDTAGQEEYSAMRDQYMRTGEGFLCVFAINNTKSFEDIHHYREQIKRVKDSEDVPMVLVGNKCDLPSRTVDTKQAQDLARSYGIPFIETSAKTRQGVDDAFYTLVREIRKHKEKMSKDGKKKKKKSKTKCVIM
Sequence of KRAS WT (P62937 whole entry): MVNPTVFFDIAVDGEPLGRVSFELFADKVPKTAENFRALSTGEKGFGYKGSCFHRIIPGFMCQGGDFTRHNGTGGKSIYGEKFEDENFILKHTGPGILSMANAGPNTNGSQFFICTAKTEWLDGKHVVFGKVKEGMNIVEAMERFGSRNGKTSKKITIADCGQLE
Sequence of KRAS G12V (P01116 other isoform, or with tags, fused parts or gaps G12V): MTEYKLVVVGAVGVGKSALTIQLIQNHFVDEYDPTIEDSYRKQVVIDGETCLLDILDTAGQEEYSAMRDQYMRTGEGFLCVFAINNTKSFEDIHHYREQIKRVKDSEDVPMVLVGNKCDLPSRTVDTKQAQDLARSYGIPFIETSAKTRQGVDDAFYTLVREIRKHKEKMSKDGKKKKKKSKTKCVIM
Sequence of KRAS G12V (P62937 whole entry): as the sequence (P62937 whole entry) above
Sequence of KRAS G12D (P01116 other isoform, or with tags, fused parts or gaps G12D): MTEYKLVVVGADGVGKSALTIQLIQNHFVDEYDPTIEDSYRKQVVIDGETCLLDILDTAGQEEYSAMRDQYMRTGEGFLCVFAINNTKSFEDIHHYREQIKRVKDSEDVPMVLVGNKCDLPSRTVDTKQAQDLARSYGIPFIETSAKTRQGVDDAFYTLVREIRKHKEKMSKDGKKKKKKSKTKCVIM
Sequence of KRAS G12D (P62937 whole entry): as the sequence (P62937 whole entry) above
Sequence of KRAS G13C (P01116 other isoform, or with tags, fused parts or gaps G13C): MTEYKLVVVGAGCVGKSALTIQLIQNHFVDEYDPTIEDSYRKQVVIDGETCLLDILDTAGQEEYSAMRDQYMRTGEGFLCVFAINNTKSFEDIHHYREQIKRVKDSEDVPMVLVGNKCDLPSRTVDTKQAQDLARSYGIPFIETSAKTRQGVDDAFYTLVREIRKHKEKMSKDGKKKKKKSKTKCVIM
Sequence of KRAS G13C (P62937 whole entry): as the sequence (P62937 whole entry) above
Sequence of KRAS G13D (P01116 other isoform, or with tags, fused parts or gaps G13D): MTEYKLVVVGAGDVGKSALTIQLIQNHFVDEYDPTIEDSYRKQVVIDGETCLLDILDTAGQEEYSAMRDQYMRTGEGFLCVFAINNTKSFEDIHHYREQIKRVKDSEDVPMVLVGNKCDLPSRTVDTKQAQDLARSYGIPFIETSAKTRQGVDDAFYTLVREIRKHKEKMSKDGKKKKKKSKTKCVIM
Sequence of KRAS G13D (P62937 whole entry): as the sequence (P62937 whole entry) above
Sequence of K-Ras G12C(GMP-PNP) binding to BRAF RBD (P01116 other isoform, or with tags, fused parts or gaps G12C): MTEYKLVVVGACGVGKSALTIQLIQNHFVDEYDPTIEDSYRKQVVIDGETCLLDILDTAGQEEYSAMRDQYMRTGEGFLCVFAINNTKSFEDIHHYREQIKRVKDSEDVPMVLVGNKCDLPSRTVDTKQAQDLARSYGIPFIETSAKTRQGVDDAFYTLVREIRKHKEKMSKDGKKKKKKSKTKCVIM
Sequence of K-Ras G12C(GMP-PNP) binding to BRAF RBD (P62937 whole entry): as the sequence (P62937 whole entry) above
Sequence of KRAS G12C (P01116-2 other isoform, or with tags, fused parts or gaps G12C): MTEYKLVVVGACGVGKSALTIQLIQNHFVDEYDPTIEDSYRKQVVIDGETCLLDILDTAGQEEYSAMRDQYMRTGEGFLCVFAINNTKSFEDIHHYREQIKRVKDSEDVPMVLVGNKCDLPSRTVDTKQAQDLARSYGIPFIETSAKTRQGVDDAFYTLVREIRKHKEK
Sequence of KRAS G12C (P62937 whole entry): as the sequence (P62937 whole entry) above
Sequence of KRAS G12S (P01116 other isoform, or with tags, fused parts or gaps G12S): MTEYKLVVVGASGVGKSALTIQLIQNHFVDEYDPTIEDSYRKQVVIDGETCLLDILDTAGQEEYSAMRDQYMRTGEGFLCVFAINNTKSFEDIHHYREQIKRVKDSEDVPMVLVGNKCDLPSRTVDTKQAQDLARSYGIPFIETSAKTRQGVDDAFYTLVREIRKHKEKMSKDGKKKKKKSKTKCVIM
Sequence of KRAS G12S (P62937 whole entry): as the sequence (P62937 whole entry) above
Sequence of NRAS G12C (P01111 whole entry G12C): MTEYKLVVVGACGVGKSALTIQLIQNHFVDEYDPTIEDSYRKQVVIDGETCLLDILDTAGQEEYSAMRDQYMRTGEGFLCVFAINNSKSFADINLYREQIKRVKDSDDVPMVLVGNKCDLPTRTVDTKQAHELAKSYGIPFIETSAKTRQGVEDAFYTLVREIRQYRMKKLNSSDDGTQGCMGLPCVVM
Sequence of NRAS G12C (P62937 whole entry): as the sequence (P62937 whole entry) above

## CCn1c(-c2cccnc2[C@H](C)OC)c2c3cc(ccc31)-c1cc(O)cc(c1)C[C@H](NC(=O)[C@H](C(C)C)N(C)C(=O)[C@H]1C[C@@H]1F)C(=O)N1CCC[C@H](N1)C(=O)OCC(C)(C)C2 [Compound A161]
[1]; Homo sapiens, CAPAN-1, 120 h
  IC50: 100 to 1000 nM
KRAS G13C
  IC50: 100 to 1000 nM
KRAS G12D
  IC50: 100 to 1000 nM
NRAS G12C
  IC50: 100 to 1000 nM
KRAS G12V
  IC50: 100 to 1000 nM
KRAS G13D
  IC50: 100 to 1000 nM
KRAS G12S
  IC50: 100 to 1000 nM
KRAS G12C
  IC50: 100 to 1000 nM
KRAS WT
  IC50: 100 to 1000 nM
NCI-H358 (K-Ras G12C); [5]
  IC50: > 10 µM
[2]
  IC50: 100 to 1000 nM
[3]; Homo sapiens, NCI-H358, 120 h
  IC50: 100 to 1000 nM

## CCn1c(-c2cnccc2COC)c2c3cc(ccc31)-c1cc(O)cc(c1)C[C@H](NC(=O)[C@H](C(C)C)N(C)C(=O)[C@H]1CNC[C@H]1C(F)(F)F)C(=O)N1CCC[C@H](N1)C(=O)OCC(C)(C)C2 [Compound A216]
[1]; Homo sapiens, CAPAN-1, 120 h
  IC50: 1000 to 10000 nM
KRAS G13C
  IC50: 10 to 100 nM
KRAS G12D
  IC50: 100 to 1000 nM
NRAS G12C
  IC50: 100 to 1000 nM
KRAS G12V
  IC50: 1000 to 10000 nM
KRAS G13D
  IC50: 10 to 100 nM
KRAS G12S
  IC50: 100 to 1000 nM
KRAS G12C
  IC50: 10 to 100 nM
KRAS WT
  IC50: 10 to 100 nM
[2]
  IC50: 100 to 1000 nM and 1000 to 10000 nM
[3]; Homo sapiens, NCI-H358, 120 h
  IC50: 1000 to 10000 nM

## CCn1c(-c2cccnc2[C@H](C)OC)c2c3cc(ccc31)-c1cc(O)cc(c1)C[C@H](NC(=O)[C@H](C(C)C)N(C)C(=O)[C@@H]1C[C@@H]1C)C(=O)N1CCC[C@H](N1)C(=O)OCC(C)(C)C2 [Compound A223]
[1]; Homo sapiens, CAPAN-1, 120 h
  IC50: 100 to 1000 nM
KRAS G13C
  IC50: 10 to 100 nM
KRAS G12D
  IC50: 10 to 100 nM
NRAS G12C
  IC50: 10 to 100 nM
KRAS G12V
  IC50: 10 to 100 nM
KRAS G13D
  IC50: 10 to 100 nM
KRAS G12S
  IC50: 10 to 100 nM
KRAS G12C
  IC50: 10 to 100 nM
KRAS WT
  IC50: 10 to 100 nM
NCI-H358 (K-Ras G12C); [5]
  IC50: > 10 µM
[2]
  IC50: 100 to 1000 nM and > 10000 nM

## CCn1c(-c2cccnc2[C@H](C)OC)c2c3cc(ccc31)-c1csc(n1)C[C@H](NC(=O)[C@H]1[C@H](C)[C@@H]1C)C(=O)N1CCC[C@H](N1)C(=O)OCC(C)(C)C2 [Compound A227, (1R,2R,3S)—N-((6^3S,4S,Z)-1^1-ethyl-1^2-(2-((S)-1-methoxyethyl)pyridin-3-yl)-10,10-dimethyl-5,7-dioxo-6^1,6^2,6^3,6^4,6^5,6^6-hexahydro-1^1H-8-oxa-2 (4,2)-thiazola-1 (5,3)-indola-6 (1,3)-pyridazinacycloundecaphane-4-yl)-2,3-dimethylcyclopropane-1-carboxamide]
[1]
  IC50: > 10000 nM
KRAS G13C
  IC50: 10 to 100 nM
[4]
  EC50: < 5000 nM
NCI-H358 (K-Ras G12C); 5-day treatment, read-out: H358 Cell Viability assay data (K-Ras G12C, IC50)
  IC50: 0.1 to 1 µM
[2]
  IC50: 100 to 1000 nM
[3]
  IC50: 1000 to 10000 nM

## CCn1c(-c2cccnc2[C@H](C)OC)c2c3cc(ccc31)-c1csc(n1)C[C@H](NC(=O)[C@H](C(C)C)N(C)C(=O)N1C[C@H](C)N(C)C[C@@H]1C)C(=O)N1CCC[C@H](N1)C(=O)OCC(C)(C)C2 [Compound A283]
[1]; Homo sapiens, CAPAN-1, 120 h
  IC50: 100 to 1000 nM
[4]; Homo sapiens
  EC50: < 5000 nM
[2]
  IC50: 10 to 100 nM and 1000 to 10000 nM
[3]; Homo sapiens, NCI-H358, 120 h
  IC50: 100 to 1000 nM

## CCn1c(-c2cccnc2[C@H](C)OC)c2c3cc(ccc31)-c1cc(O)cc(c1)C[C@H](NC(=O)[C@H](C(C)C)N(C)C(=O)[C@H]1CCN(C(C)=O)C1)C(=O)N1CCC[C@H](N1)C(=O)NCC(C)(C)C2 [Compound A431]
KRAS G13C
  IC50: 100 to 1000 nM
KRAS G12D
  IC50: 1000 to 10000 nM
NRAS G12C
  IC50: 100 to 1000 nM
KRAS G12V
  IC50: 100 to 1000 nM
KRAS G13D
  IC50: 1000 to 10000 nM
KRAS G12S
  IC50: 100 to 1000 nM
KRAS G12C
  IC50: 100 to 1000 nM
KRAS WT
  IC50: 1000 to 10000 nM
NCI-H358 (K-Ras G12C); [5]
  IC50: 0.01 to 0.1 µM
[2]
  IC50: 100 to 1000 nM

## CCn1c(-c2cccnc2[C@H](C)OC)c2c3cc(ccc31)-c1csc(n1)C[C@H](NC(=O)[C@H](C(C)C)N(C)C(=O)N1CCC[C@@H](N(C)C)CC1)C(=O)N1CCC[C@H](N1)C(=O)OCC(C)(C)C2 [Compound A494]
NCI-H358 (K-Ras G12C); Homo sapiens, NCI-H358, 120 h, read-out: H358 Cell Viability assay data (K-Ras G12C, IC50, uM), 5-day treatment
  IC50: 0.1 to 1 µM
[2]
  IC50: 100 to 1000 nM
[3]; Homo sapiens, NCI-H358, 120 h
  IC50: 10 to 100 nM

## CCn1c(-c2cc(N3CCN(C)CC3)cnc2[C@H](C)OC)c2c3cc(ccc31)-c1csc(n1)C[C@H](NC(=O)[C@H](C(C)C)N(C)C(=O)[C@@H]1OCC[C@@H]1c1ccccc1)C(=O)N1CCC[C@H](N1)C(=O)OCC(C)(C)C2 [Compound A593]
[1]; Homo sapiens, CAPAN-1, 120 h
  IC50: < 10 nM
[4]; Homo sapiens
  EC50: < 5000 nM
NCI-H358 (K-Ras G12C); [5]
  IC50: 0.1 to 1 µM
[2]
  IC50: 100 to 1000 nM
[3]; Homo sapiens, NCI-H358, 120 h
  IC50: < 10 nM
